Earlier results in paper PMC7395068, “The evolution of strategies to minimise the risk of human drug-induced liver injury (DILI) in drug discovery and development” (Archives of Toxicology, 2020).
Where two headings read alike, the source gives them in different places.

Tests used:
[1] = tested on: HepG2 cells; details: cited from earlier work
[2] = cited from earlier work
[3] = cited from earlier work; remark: listed apart in the source
[4] = tested on: HepG2 cells; details: cited from earlier work; remark: listed apart in the source
[5] = tested on: isolated mouse liver mitochondria; details: cited from earlier work
[6] = tested on: THLE or HepG2 cells, isolated mitochondria, BSEP; details: cited from earlier work
[7] = tested on: human hepatocytes; details: cited from earlier work
[8] = In vitro Assay, ref O'Brien 2006
[9] = assignment in O'Brien 2006, ref O'Brien 2006
[10] = In vitro Assay, ref Persson 2013

[Cl-].[Na+] [sodium chloride]
Structural based (HCI), In vitro Assay [1]: +VE
In vivo DILI ([2]; in vivo): -VE

CCCc1cc(=O)[nH]c(=S)[nH]1 [propythiouracil]
Structural based (HCI), In vitro Assay ([1]; HepG2 HCI, ref O'Brien 2006): +VE

CCOC(=O)[C@H](CCc1ccccc1)N[C@@H](C)C(=O)N1CCC[C@H]1C(=O)O [enalapril]
Structural based (HCI) [1, 8]: +VE (lowest HCI endpoint IC50 (or in the absence of dose–response < 100 µM) < 30 × total human plasma exposure levels (Cmax.tot))
In vivo DILI ([2]; ref O'Brien 2006): +VE
DILI +VE (5-8), DILI -VE (-4) ([3]; ref Chen 2016): +VE
DILI severity category ([3]; ref Chen 2016): vLess-DILI-Concern

Cc1scc2c1N(C(=O)CN1CCN(C)CC1)c1ccccc1NC2=O [telenzipine]
Structural based (HCI), In vitro Assay ([1]; HepG2 HCI, ref O'Brien 2006): -VE
In vivo DILI [2, 9]: -VE

CCN(CC)CCNC(=O)c1cc(Cl)c(N)cc1OC [metoclopramide]
Structural based (HCI) [1]: -VE
DILI +VE (5-8), DILI -VE (-4) ([3]; in vivo): +VE
DILI severity category ([3]; in vivo): vLess-DILI-Concern

CCCc1cc(=O)[nH]c(=S)[nH]1 [propylthiouracil]
Cluser analysis [4]: -VE
Structural based (HCI) [4]: -VE
in vitro data EC2<=1x Cmax ([5]; In vitro Assay, ref Porceddu 2012): +VE
DILI +VE (5-8), DILI -VE (-4) ([3]; in vivo): +VE
DILI severity category ([3]; in vivo): vMost-DILI-Concern

O=C(O)CCCCCCNC1c2ccccc2CCc2ccccc21 [amineptine]
Cluser analysis [4]: -VE
Structural based (HCI) [4]: -VE
In vivo DILI ([2]; in vivo): +VE
Partition Hybrid HRM Score [6]: +VE
Ro2 Hybrid HRM Score [6]: -VE
DILI +VE (5-8), DILI -VE (-4) ([3]; in vivo): +VE
DILI severity category ([3]; in vivo): vMost-DILI-Concern

FC(F)(F)C(Cl)Br (centres unmarked) [halothane]
Structural based (HCI), In vitro Assay ([1]; HepG2 HCI, ref O'Brien 2006): +VE
In vivo DILI [2, 9]: -VE

CC(C(=O)O)c1ccc(N2Cc3ccccc3C2=O)cc1 (centres unmarked) [indoprofen]
Structural based (HCI), In vitro Assay ([1]; HepG2 HCI, ref O'Brien 2006): +VE
In vivo DILI [2, 9]: -VE

COCc1c(C(C)C)nc(C(C)C)c(/C=C/[C@@H](O)C[C@@H](O)CC(=O)O)c1-c1ccc(F)cc1 [cerivastatin]
Structural based (HCI) [1]: +VE (key: +VE: lowest HCI endpoint IC50 (or in the absence of dose–response < 100 µM) < 30 × total human plasma exposure levels (Cmax.tot))
In vivo DILI ([2]; ref O'Brien 2006): +VE

O=C(O)c1ccccc1Nc1cccc(C(F)(F)F)c1 [flufenamate]
Structural based (HCI) [1, 8]: +VE (lowest HCI endpoint IC50 (or in the absence of dose–response < 100 µM) < 30 × total human plasma exposure levels (Cmax.tot))
In vivo DILI ([2]; ref O'Brien 2006): -VE

O=C(O)CCCC[C@@H]1SC[C@@H]2NC(=O)N[C@@H]21 [biotin]
Cluser analysis [4]: -VE
Structural based (HCI) [4]: -VE
in vitro data EC20<=2uM [5]: -VE
In vivo DILI ([2]; in vivo): -VE
Structural based (HCI) [7]: -VE

CN(N=O)C(=O)N[C@@H](C=O)[C@@H](O)[C@H](O)[C@H](O)CO [streptozocin]
Structural based (HCI) [1, 8]: -VE
In vivo DILI ([2]; ref O'Brien 2006): -VE
DILI +VE (5-8), DILI -VE (-4) ([3]; ref Chen 2016): -VE
DILI severity category ([3]; ref Chen 2016): Ambiguous DILI-concern

CC[C@]12CCCN3CCc4c(n(c5ccccc45)[C@@](O)(C(=O)OC)C1)[C@@H]32 [vincamine]
Structural based (HCI), In vitro Assay ([1]; HepG2 HCI, ref O'Brien 2006): +VE
In vivo DILI [2, 9]: -VE

CN1CCC[C@H]1c1cccnc1 [nicotine]
Cluser analysis [4]: -VE
in vitro data EC20<=2uM [5]: -VE
In vivo DILI ([2]; in vivo): -VE

CN[C@H](CC(C)C)C(=O)N[C@H]1C(=O)N[C@@H](CC(N)=O)C(=O)N[C@H]2C(=O)N[C@H]3C(=O)N[C@H](C(=O)N[C@H](C(=O)O)c4cc(O)cc(O)c4-c4cc3ccc4O)[C@H](O)c3ccc(c(Cl)c3)Oc3cc2cc(c3O[C@@H]2O[C@H](CO)[C@@H](O)[C@H](O)[C@H]2O[C@H]2C[C@](C)(N)[C@H](O)[C@H](C)O2)Oc2ccc(cc2Cl)[C@H]1O [vancomycin]
Cluser analysis [4]: -VE
Partition Hybrid HRM Score [6]: +VE
Ro2 Hybrid HRM Score [6]: -VE
Structural based (HCI) [7]: +VE
DILI +VE (5-8), DILI -VE (-4) ([3]; in vivo): +VE
DILI severity category ([3]; in vivo): vLess-DILI-Concern

Cc1ccc(S(=O)(=O)NC(=O)NN2CCCCCC2)cc1 [tolazamide]
Structural based (HCI) [1, 8]: +VE (lowest HCI endpoint IC50 (or in the absence of dose–response < 100 µM) < 30 × total human plasma exposure levels (Cmax.tot))
In vivo DILI ([2]; ref O'Brien 2006): +VE
DILI +VE (5-8), DILI -VE (-4) ([3]; ref Chen 2016): +VE
DILI severity category ([3]; ref Chen 2016): vLess-DILI-Concern

CCn1cc(C(=O)O)c(=O)c2cc(F)c(N3CCNCC3)cc21 [norfloxacin]
Structural based (HCI) [1, 8]: +VE (lowest HCI endpoint IC50 (or in the absence of dose–response < 100 µM) < 30 × total human plasma exposure levels (Cmax.tot))
In vivo DILI ([2]; ref O'Brien 2006): +VE
DILI +VE (5-8), DILI -VE (-4) ([3]; ref Chen 2016): +VE
DILI severity category ([3]; ref Chen 2016): vLess-DILI-Concern

Nc1ccc(C(=O)O)c(O)c1 [aminosalycilate]
Structural based (HCI) [1]: +VE (key: +VE: lowest HCI endpoint IC50 (or in the absence of dose–response < 100 µM) < 30 × total human plasma exposure levels (Cmax.tot))

CC[C@H](C)C(=O)O[C@H]1CCC=C2C=C[C@H](C)[C@H](CC[C@@H]3C[C@@H](O)CC(=O)O3)[C@H]21 [mevastatin]
Structural based (HCI), In vitro Assay ([1]; HepG2 HCI, ref O'Brien 2006): -VE
In vivo DILI [2, 9]: -VE

O=C(O)P(=O)(O)O [foscarnet]
Structural based (HCI) [1, 8]: +VE (lowest HCI endpoint IC50 (or in the absence of dose–response < 100 µM) < 30 × total human plasma exposure levels (Cmax.tot))
In vivo DILI ([2]; ref O'Brien 2006): -VE
DILI +VE (5-8), DILI -VE (-4) ([3]; ref Chen 2016): -VE
DILI severity category ([3]; ref Chen 2016): Ambiguous DILI-concern

Nc1ccc(C(=O)O)c(O)c1 [aminosalicylic acid]
Cluser analysis [4, 10]: -VE
Structural based (HCI) [4, 10]: -VE
In vivo DILI ([2]; in vivo): +VE
Structural based (HCI) [7]: +VE

Oc1c(I)cc(Cl)c2cccnc12 [clioquinol]
Structural based (HCI) [1, 8]: +VE (lowest HCI endpoint IC50 (or in the absence of dose–response < 100 µM) < 30 × total human plasma exposure levels (Cmax.tot))
In vivo DILI ([2]; ref O'Brien 2006): -VE

CCCN1C[C@H](CSC)C[C@@H]2c3cccc4[nH]cc(c34)C[C@H]21 [pergolide]
Cluser analysis [4, 10]: -VE
Structural based (HCI) [4, 10]: -VE
In vivo DILI ([2]; ref Persson 2013): -VE
DILI +VE (5-8), DILI -VE (-4) ([3]; ref Chen 2016): -VE
DILI severity category ([3]; ref Chen 2016): Ambiguous DILI-concern

CC[C@]1(O)CC[C@H]2[C@@H]3CCC4=CCCC[C@@H]4[C@H]3CC[C@@]21C [ethylestrenol]
Structural based (HCI) [1, 8]: +VE (lowest HCI endpoint IC50 (or in the absence of dose–response < 100 µM) < 30 × total human plasma exposure levels (Cmax.tot))
In vivo DILI ([2]; ref O'Brien 2006): +VE

CCC1(c2ccccc2)C(=O)NCNC1=O [primidone]
Structural based (HCI) [1]: +VE
DILI +VE (5-8), DILI -VE (-4) ([3]; in vivo): -VE

Nc1ccc(S(=O)(=O)Nc2ccnn2-c2ccccc2)cc1 [sulfaphenazole]
Structural based (HCI) [1, 8]: +VE (lowest HCI endpoint IC50 (or in the absence of dose–response < 100 µM) < 30 × total human plasma exposure levels (Cmax.tot))
In vivo DILI ([2]; […]): -VE
In vivo DILI ([2]; ref O'Brien 2006): +VE

Nc1nc(=O)c2c([nH]1)NC[C@@H](CNc1ccc(C(=O)N[C@@H](CCC(=O)O)C(=O)O)cc1)N2C=O [folinic acid]
Cluser analysis [4, 10]: -VE
Structural based (HCI) [4, 10]: -VE
In vivo DILI ([2]; ref Persson 2013): -VE

CCN1CCCC1CNC(=O)c1cc(S(=O)(=O)CC)c(N)cc1OC (centres unmarked) [amisulpride]
Cluser analysis [4, 10]: -VE
Structural based (HCI) [4, 10]: -VE
In vivo DILI ([2]; ref Persson 2013): -VE

CC(C)(O/N=C(\C(=O)N[C@@H]1C(=O)N2C(C(=O)[O-])=C(C[n+]3ccccc3)CS[C@H]12)c1csc(N)n1)C(=O)O [ceftazidime]
Structural based (HCI) [1, 8]: +VE (lowest HCI endpoint IC50 (or in the absence of dose–response < 100 µM) < 30 × total human plasma exposure levels (Cmax.tot))
In vivo DILI ([2]; […]): +VE
In vivo DILI ([2]; ref O'Brien 2006): +VE
DILI +VE (5-8), DILI -VE (-4) ([3]; ref Chen 2016): +VE
DILI severity category ([3]; ref Chen 2016): vLess-DILI-Concern

NS(=O)(=O)Cc1noc2ccccc12 [zonisamide]
Structural based (HCI) [1, 8]: +VE (lowest HCI endpoint IC50 (or in the absence of dose–response < 100 µM) < 30 × total human plasma exposure levels (Cmax.tot))
In vivo DILI ([2]; ref O'Brien 2006): -VE
DILI +VE (5-8), DILI -VE (-4) ([3]; ref Chen 2016): +VE
DILI severity category ([3]; ref Chen 2016): vLess-DILI-Concern

CCNC(C)Cc1cccc(C(F)(F)F)c1 (centres unmarked) [fenfluramine]
Structural based (HCI) [1, 8]: -VE
In vivo DILI ([2]; ref O'Brien 2006): -VE

Nc1ccc(S(=O)(=O)NC(=O)c2ccccc2)cc1 [sulfabenzamide]
Structural based (HCI), In vitro Assay ([1]; HepG2 HCI, ref O'Brien 2006): -VE
In vivo DILI [2, 9]: -VE
